{"source": "patent US11976051B1", "about": "“N′-(2-(5-(4-chlorophenyl)-1,3,4-oxadiazol-2-ylthio)acetoxy)-2-naphthimidamide as an antimicrobial compound” (KING FAISAL UNIVERSITY, priority 2023, dated 2024)", "key": {"[1]": {"test_system": "Bacillus cereus", "test": "Agar plate disc-diffusion, antibacterial activity", "assay_type": "cell-based", "conditions": "nutrient agar, 37° C., 48 h", "description": "(§1) The agar plate disc-diffusion method was applied. […] The discs were then placed onto the surface of agar plates (nutrient agar for bacteria and Sabouraud's dextrose agar for fungi) seeded with the test organism. Each plate contained 15 mL of the agar medium, previously seeded with 0.2 mL of the broth culture of each organism pregrown for 18 h. The plates were incubated at 37° C. for 48 h, and 72 h for fungi. The inhibition zones was measured in mm. Discs impregnated with DMSO were used as a control, and its inhibition zone was subtracted from the tested compound actual inhibition zone.\n(§2) The antibacterial activity was screened against gram positive bacteria namely Bacillus cereus and Staphylococcus aureus and gram-negative bacterial strains namely Pseudomonas aeruginosa and Escherichia coli, while the antifungal activity was screened against Aspergillus flavus and Chrysosporium keratinophilum as shown in Table 1 and 2."}, "[2]": {"test_system": "Pseudomonas aeruginosa", "test": "Agar plate disc-diffusion, antibacterial activity", "assay_type": "cell-based", "conditions": "nutrient agar, 37° C., 48 h", "description": "as §1, §2"}, "[3]": {"test_system": "Staphylococcus aureus", "test": "Agar plate disc-diffusion, antibacterial activity", "assay_type": "cell-based", "conditions": "nutrient agar, 37° C., 48 h", "description": "as §1, §2"}, "[4]": {"test_system": "Escherichia coli", "test": "Agar plate disc-diffusion, antibacterial activity", "assay_type": "cell-based", "conditions": "nutrient agar, 37° C., 48 h", "description": "(§3) The agar plate disc-diffusion method was applied. Sterilized filter papers (6 mm in diameter) were wetted with […] of a solution of N′-(2-(5-(4-chlorophenyl)-1,3,4-oxadiazol-2-ylthio)acetoxy)-2-naphthimidamide (3) to be tested, containing 10 mg/mL in DMSO, and the discs were allowed to air dry. The discs were then placed onto the surface of agar plates (nutrient agar for bacteria and Sabouraud's dextrose agar for fungi) seeded with the test organism. Each plate contained 15 mL of the agar medium, previously seeded with 0.2 mL of the broth culture of each organism pregrown for 18 h. The plates were incubated at 37° C. for 48 h, and 72 h for fungi. The inhibition zones was measured in mm. Discs impregnated with DMSO were used as a control, and its inhibition zone was subtracted from the tested compound actual inhibition zone.\nas §2"}, "[5]": {"test_system": "Aspergillus flavus", "test": "Agar plate disc-diffusion, antifungal activity", "assay_type": "cell-based", "conditions": "Sabouraud's dextrose agar, 72 h", "description": "as §3, §2"}, "[6]": {"test_system": "Chrysosporium keratinophilum", "test": "Agar plate disc-diffusion, antifungal activity", "assay_type": "cell-based", "conditions": "Sabouraud's dextrose agar, 72 h", "description": "as §1, §2"}, "[7]": {"conditions": "A = concentration of comp. = 10 mg/mL"}, "[8]": {"conditions": "B = concentration of comp. = 30,000 μL"}, "[9]": {"conditions": "C = concentration of comp. = 50,000 μL"}, "[10]": {"conditions": "A = concentration of comp. = 10,000 μg/mL"}}}
{"smiles": "N/C(=N\\OC(=O)CSc1nnc(-c2ccc(Cl)cc2)o1)c1ccc2ccccc2c1", "note": "[Compound 3, N′-(2-(5-(4-chlorophenyl)-1,3,4-oxadiazol-2-ylthio)acetoxy)-2-naphthimidamide]", "values": [{"measurement": "inhibition zone, Bacillus Cereus", "setting": "[1]; [7]", "value": 31, "unit": "mm"}, {"measurement": "inhibition zone, Bacillus Cereus", "setting": "[1]; [8]", "value": 36, "unit": "mm"}, {"measurement": "inhibition zone, Bacillus Cereus", "setting": "[1]; [9]", "value": 43, "unit": "mm"}, {"measurement": "inhibition zone, Pseudomonas aeruginosa", "setting": "[2]; [7]", "value": 26, "unit": "mm"}, {"measurement": "inhibition zone, Pseudomonas aeruginosa", "setting": "[2]; [8]", "value": 33, "unit": "mm"}, {"measurement": "inhibition zone, Pseudomonas aeruginosa", "setting": "[2]; [9]", "value": 39, "unit": "mm"}, {"measurement": "inhibition zone, Staphylococcus aureus", "setting": "[3]; [7]", "value": 17, "unit": "mm"}, {"measurement": "inhibition zone, Staphylococcus aureus", "setting": "[3]; [8]", "value": 24, "unit": "mm"}, {"measurement": "inhibition zone, Staphylococcus aureus", "setting": "[3]; [9]", "value": 29, "unit": "mm"}, {"measurement": "inhibition zone, Escherichia coli", "setting": "[4]; [10]", "value": 35, "unit": "mm"}, {"measurement": "inhibition zone, Escherichia coli", "setting": "[4]; [8]", "value": 41, "unit": "mm"}, {"measurement": "inhibition zone, Escherichia coli", "setting": "[4]; [9]", "value": 47, "unit": "mm"}, {"measurement": "inhibition zone, Aspergillus flavus", "setting": "[5]; A = concentration of comp. = 10,000 μL", "value": 25, "unit": "mm"}, {"measurement": "inhibition zone, Aspergillus flavus", "setting": "[5]; [8]", "value": 28, "unit": "mm"}, {"measurement": "inhibition zone, Aspergillus flavus", "setting": "[5]; [9]", "value": 37, "unit": "mm"}, {"measurement": "inhibition zone, Chrysosporium keratinophilum", "setting": "[6]; [10]", "value": 23, "unit": "mm"}, {"measurement": "inhibition zone, Chrysosporium keratinophilum", "setting": "[6]; [8]", "value": 29, "unit": "mm"}, {"measurement": "inhibition zone, Chrysosporium keratinophilum", "setting": "[6]; [9]", "value": 38, "unit": "mm"}, {"measurement": "melting point", "value": "181 to 182", "unit": "°C"}]}
